From US20010034342A1, “Substituted urea and isothiourea derivatives as no synthase inhibitors” (priority 1993, published 2001) come the findings set out here.

Like-named read-outs stand apart in the source and are kept apart here.

The target in one data set is T1, inducible human NOS (Homo sapiens, UniProt P35228).
T1 construct: Purification of NOS cytokine-induced human colorectal adenocarcinoma DLD-1 cells; endogenous in cells; host or cells: DLD-1 (ATCC No. CCL 221), induced with IFN-gamma, IL-6, TNF and IL-1beta
In words: Assay for inducible human NOS (citrulline formation), enzyme from cytokine-induced DLD-1 cells. The class given is biochemical.

In the next data set the target is T2, human placental NOS (Homo sapiens, UniProt P29474).
T2 construct: Purification of NOS from human placenta; from tissue; host or cells: fresh human placenta
Nature of the data set: Assay for human placental NOS (citrulline formation). The class given is biochemical.

For another data set, the target named is T3, Human brain NOS (Homo sapiens, UniProt P29475).
T3 construct: Purification of NOS from human brain; from tissue; host or cells: frozen human brain
In words: Human brain NOS enzyme activity assay. The class given is biochemical. Conditions: for Ki: isolated enzyme from human brain.

The mark [1] stands for this setting: isolated enzyme from DLD-1 cells, read-out: Human Inducible Ki/μM.
The mark [2] stands for this setting: isolated enzyme from human placenta, read-out: Human Placental Ki/μM.

T3 sequence (P29475 whole entry): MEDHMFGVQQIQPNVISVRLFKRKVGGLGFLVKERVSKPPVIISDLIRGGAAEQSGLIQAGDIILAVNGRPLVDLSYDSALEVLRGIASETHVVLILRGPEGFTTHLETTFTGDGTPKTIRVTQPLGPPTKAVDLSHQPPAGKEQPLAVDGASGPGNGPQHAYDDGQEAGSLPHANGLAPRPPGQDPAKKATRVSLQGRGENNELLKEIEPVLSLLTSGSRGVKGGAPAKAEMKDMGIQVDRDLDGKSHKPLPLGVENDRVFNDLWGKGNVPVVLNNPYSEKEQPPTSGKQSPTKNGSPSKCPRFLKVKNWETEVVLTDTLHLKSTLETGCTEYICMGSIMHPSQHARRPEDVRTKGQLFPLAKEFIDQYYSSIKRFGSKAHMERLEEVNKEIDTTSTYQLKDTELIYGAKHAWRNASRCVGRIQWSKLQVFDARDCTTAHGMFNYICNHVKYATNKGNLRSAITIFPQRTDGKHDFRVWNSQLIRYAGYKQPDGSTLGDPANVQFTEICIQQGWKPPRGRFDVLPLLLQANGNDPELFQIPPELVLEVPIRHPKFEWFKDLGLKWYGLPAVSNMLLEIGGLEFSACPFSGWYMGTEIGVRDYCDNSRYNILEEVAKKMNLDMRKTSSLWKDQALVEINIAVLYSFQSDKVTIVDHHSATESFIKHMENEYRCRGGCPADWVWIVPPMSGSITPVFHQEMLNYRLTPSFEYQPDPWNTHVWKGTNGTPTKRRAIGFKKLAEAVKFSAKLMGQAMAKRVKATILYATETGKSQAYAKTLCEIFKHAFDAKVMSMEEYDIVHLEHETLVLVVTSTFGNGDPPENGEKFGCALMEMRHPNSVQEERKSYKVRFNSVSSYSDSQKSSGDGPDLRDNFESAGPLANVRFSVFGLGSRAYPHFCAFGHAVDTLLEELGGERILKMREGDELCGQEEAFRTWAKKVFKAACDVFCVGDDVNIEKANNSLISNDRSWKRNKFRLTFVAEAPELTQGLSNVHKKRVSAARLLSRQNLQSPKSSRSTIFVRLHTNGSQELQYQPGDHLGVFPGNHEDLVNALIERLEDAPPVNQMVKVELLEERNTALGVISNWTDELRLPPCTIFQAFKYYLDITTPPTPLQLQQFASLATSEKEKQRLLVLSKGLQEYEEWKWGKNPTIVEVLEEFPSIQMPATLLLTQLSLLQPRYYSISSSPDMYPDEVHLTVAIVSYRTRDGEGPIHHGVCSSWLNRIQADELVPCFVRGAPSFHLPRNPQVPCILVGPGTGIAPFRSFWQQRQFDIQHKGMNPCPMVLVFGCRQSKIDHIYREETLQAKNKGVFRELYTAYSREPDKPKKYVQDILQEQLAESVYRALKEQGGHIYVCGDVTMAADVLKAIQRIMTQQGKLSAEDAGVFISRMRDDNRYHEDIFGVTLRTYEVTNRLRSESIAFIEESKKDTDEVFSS
T1 sequence (P35228 whole entry): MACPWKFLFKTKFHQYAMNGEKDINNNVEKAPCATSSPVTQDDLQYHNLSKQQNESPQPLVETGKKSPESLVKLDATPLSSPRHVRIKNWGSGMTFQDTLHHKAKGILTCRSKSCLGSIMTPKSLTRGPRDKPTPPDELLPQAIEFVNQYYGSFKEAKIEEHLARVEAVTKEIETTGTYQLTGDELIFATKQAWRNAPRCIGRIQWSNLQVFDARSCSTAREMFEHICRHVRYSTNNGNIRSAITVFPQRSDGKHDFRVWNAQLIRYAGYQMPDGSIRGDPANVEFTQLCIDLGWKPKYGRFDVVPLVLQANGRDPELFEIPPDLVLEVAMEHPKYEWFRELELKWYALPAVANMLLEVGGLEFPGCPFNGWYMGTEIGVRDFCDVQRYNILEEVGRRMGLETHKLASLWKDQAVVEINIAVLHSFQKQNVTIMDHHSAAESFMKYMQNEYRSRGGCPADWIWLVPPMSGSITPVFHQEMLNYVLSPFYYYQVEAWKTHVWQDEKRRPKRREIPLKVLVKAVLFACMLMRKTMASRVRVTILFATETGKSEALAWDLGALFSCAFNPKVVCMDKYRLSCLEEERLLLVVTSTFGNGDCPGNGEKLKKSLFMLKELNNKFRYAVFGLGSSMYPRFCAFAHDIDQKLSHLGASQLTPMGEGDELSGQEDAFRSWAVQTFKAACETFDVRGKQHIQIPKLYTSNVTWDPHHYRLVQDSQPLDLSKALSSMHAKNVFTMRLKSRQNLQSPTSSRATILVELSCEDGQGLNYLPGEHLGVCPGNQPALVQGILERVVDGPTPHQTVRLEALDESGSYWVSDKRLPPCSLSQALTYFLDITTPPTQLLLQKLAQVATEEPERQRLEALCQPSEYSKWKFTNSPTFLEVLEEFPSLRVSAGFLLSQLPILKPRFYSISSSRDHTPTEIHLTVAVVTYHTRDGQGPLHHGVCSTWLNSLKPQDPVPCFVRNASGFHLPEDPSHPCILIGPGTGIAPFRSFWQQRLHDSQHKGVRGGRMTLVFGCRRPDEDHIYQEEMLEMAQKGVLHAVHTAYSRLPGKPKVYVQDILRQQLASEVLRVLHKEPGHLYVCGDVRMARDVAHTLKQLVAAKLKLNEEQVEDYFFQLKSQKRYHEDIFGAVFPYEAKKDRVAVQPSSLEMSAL
T2 sequence (P29474 2-1203): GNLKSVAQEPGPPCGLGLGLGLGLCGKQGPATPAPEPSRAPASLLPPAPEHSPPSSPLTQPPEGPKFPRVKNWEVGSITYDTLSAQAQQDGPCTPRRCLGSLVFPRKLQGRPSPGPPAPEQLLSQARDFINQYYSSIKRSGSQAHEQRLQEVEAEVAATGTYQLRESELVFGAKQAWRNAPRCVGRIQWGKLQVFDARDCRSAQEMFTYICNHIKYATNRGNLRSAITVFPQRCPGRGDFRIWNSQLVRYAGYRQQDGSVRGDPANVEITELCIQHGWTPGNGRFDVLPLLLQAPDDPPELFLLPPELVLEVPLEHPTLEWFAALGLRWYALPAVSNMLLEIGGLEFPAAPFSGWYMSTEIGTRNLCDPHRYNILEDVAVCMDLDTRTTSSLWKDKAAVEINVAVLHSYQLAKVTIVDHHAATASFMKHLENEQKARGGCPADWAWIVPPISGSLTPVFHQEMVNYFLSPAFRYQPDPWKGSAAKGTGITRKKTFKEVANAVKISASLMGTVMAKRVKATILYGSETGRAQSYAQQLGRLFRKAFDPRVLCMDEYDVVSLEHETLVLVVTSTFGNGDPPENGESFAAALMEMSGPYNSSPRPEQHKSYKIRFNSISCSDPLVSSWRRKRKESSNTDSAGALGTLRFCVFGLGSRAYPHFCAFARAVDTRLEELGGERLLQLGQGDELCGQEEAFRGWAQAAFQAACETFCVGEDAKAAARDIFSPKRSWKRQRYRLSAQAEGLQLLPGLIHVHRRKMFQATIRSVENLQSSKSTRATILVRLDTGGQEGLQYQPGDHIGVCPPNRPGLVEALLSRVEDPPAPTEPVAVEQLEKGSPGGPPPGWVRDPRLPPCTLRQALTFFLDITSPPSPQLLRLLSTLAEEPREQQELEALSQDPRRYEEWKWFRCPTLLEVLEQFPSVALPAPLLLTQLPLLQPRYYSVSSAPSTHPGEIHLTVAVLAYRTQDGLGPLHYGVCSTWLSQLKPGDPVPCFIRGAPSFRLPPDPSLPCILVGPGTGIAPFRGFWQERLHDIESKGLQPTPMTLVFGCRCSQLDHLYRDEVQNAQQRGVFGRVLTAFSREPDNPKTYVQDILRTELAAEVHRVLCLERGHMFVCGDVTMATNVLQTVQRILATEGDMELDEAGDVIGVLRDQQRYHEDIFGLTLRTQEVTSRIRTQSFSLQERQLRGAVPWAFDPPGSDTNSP
Procedure for Human brain NOS: The mixture was centrifuged at 13,000 g for 1 hour and the supernatant was removed (about 2050 ml). […] The precipitate was pelleted at 13,000 g for 30 minutes and the pellet was resuspended in −400 mls of buffer A with 4 μM tetrahydrobiopterin, 1 μm FAD (Sigma), 1 μM FMN (Sigma). The solution was centrifuged at 41,000 g for 60 minutes. The supernatant was removed, frozen by pouring into liquid nitrogen, and stored overnight at −70° C. The mixture was thawed and passed through a 2′,5′ ADP-agarose column (0.4 g swelled in buffer A) at 4 ml/min. The column was washed with 100 ml buffer A, 200 ml buffer A with 500 mM NaCl, 100 ml Buffer A, then 30 ml buffer A with 5 mM NADPH. […] To the enzyme was added tetrahydrobiopterin to 10 μM, FAD and FMN to 1 μM, and tween to 0.1%. This solution was concentrated by centriprep-30 to a volume of approximately 500 μl. Human NOS was prepared completely analogously except the calmodulin-agarose column was not used.
Procedure for human placental NOS: (§1) NOS was assayed for the formation of citrulline following the procedure of Schmidt et al (PNAS 88 365-369, 1991) with these modifications: 20 mM Hepes, pH 7.4, 10 μg/ml calmodulin, 2.5 mM CaCl2 2.5 mM DTT, 125 μM NADPH 10 μM H4 Biopterin, 0.5 mg/ml BSA, and 1 μM L-[14C] arginine (New England Nuclear). Linearity of NOS-catalyzed rate was confirmed prior to kinetic studies that used single tine point determination of rate.
Procedure for inducible human NOS: as §1
DLD-1 (ATCC No. CCL 221) were grown at 37° C., 5% CO2 in RPMI 1640 medium supplemented with L-glutamin, penicillin, streptomycin, and 10% heat-inactivated fetal bovine serum. Cells were grown to confluency and then the following cocktail of cytokines were added: 100 units/ml interferon-gamma, 200 units/ml interleukin-6, 10 ng/ml tumor necrosis factor, and 0.5 ng/mil interleukin-1β. At 10-24 hr post-induction, cells were harvested by scraping and washed with phosphate-buffered saline. Pelleted cells were stored at −70° C. Purification of the induced NOS was performed at 4° C. Crude extract was prepared by three cycles of freeze/thawing cells in TDGB (20 mM tris pH 7.5, 10% glycerol, 1 mM DTT, 2 μM tetrahydrobiopterin). Extract was applied directly onto a column of 2′,5′ ADP sepharse (Pharmacia). Resin was sequentially washed with TDGB, 0.5 M NaCl in TDGB, TDGB. NOS was eluted with 2 mM NADPH in TDGB. BSA was immediately added to give a final concentration of 1 mg/ml. NOS could be quick frozen and stored at −70° C. without loss in activity for at least 2 months.
Assay for inducible human NOS.
The formation of citrulline was assayed as described above except that 10 μM FAD was included and calmodulin and CaCl2 were excluded from the assay mix.

As for `COC(=N)Nc1ccc(C(F)(F)F)cc1` [Example 3, O-Methyl-N-(4-(trifluoromethyl)phenyl)isourea], the melting point was 121 to 123 °C. The “Human Inducible, percent (inhibition), concentration not given” value at inducible human NOS was 4%. For the same compound, at human placental NOS, the “Human Placental, percent (inhibition), concentration not given” value worked out at 14%. Further, the “Human Brain, percent (inhibition), concentration not given” value at Human brain NOS (concentration not given) worked out at 24%.

`N=C(Nc1ccc(C(F)(F)F)cc1)SCc1ccccc1` [Example 2A, S-Benzyl-N-[4-(trifluoromethyl)phenyl]isothiourea] came in with a melting point of 71 to 72 °C. For the same compound, at inducible human NOS, the “Human Inducible, percent (inhibition), concentration not given” value stood at 0%. The “Human Placental, percent (inhibition), concentration not given” value on human placental NOS turned out to be 0%. Besides, the inhibition at 25 µM at Human brain NOS (@ 25 μM inhibitor, read-out: Human Brain, percent (inhibition) @ 25 μM) was 11%.

Regarding `CSC(=N)NCCCC[C@H](N)C(=O)O` [Example 9A, N^6-(imino(methylthio)methyl)L-lysine], the Ki at inducible human NOS (setting [1]) turned out to be 1.7 µM; at human placental NOS (setting [2]), 4.1 µM; on Human brain NOS it was 0.09 µM.

In the case of `CSC(=N)NCCC[C@H](N)C(=O)O` [Example 8], the Ki at inducible human NOS (from steady state inhibited rate / control rate, assuming competitive inhibition with respect to arginine, read-out: Human Inducible Ki/μM (footnote a)) is 0.034 µM; on human placental NOS (from percent inhibition at three or more concentrations at a single time point, assuming competitive inhibition with respect to arginine, read-out: Human Placental Ki/μM (footnote b)), 0.07 µM. For the same compound, the Kd at Human brain NOS (Kd from association and dissociation rate constants for the slow onset of inhibition, read-out: Human Brain Ki/μM (footnote c: value is a Kd)) was found to be 0.001 µM.

Regarding `CCSC(=N)Nc1ccc(C2CCCCC2)cc1` [Example 1H, S-ethyl-N-(4-cyclohexylphenyl)isothiourea], the Ki is 28 µM on inducible human NOS (setting [1]), 14 µM on human placental NOS (setting [2]) and 1.5 ± 0.07 µM at Human brain NOS.

On to `CC(C)SC(=N)NCCCC[C@H](N)C(=O)O` [Example 9D, N^6-(imino(1-methylethylthio)methyl)L-lysine], for which the Ki was determined as 22.6 µM on inducible human NOS (setting [1]), 23.2 µM at human placental NOS (setting [2]) and 28 µM at Human brain NOS.

Take `CCSC(=N)Nc1ccccc1Cl` [Example 2G]: the values for the Ki at inducible human NOS (setting [1]), on human placental NOS (setting [2]) and at Human brain NOS were 2.9 µM, 1.8 µM and 0.17 µM, respectively.

Regarding `CC(C)SC(=N)NCCC[C@H](N)C(=O)O` [Example 9C, N^5-(imino(1-methylethylthio)methyl)-L-ornithine], the values for the Ki at inducible human NOS (setting [1]), on human placental NOS (setting [2]) and on Human brain NOS were 0.15 µM, 2.1 µM and 0.9 µM, respectively.

For the compound `CC(C)SC(=N)NCCCC[C@@H](N)C(=O)O` [Example 9L], the Ki on inducible human NOS (setting [1]) came to 19 µM; at human placental NOS (setting [2]), 23 µM; at Human brain NOS, 108 µM.

As for `CCSC(=N)NCc1cccc(CN)c1` [Example 13A, 1-(3-(Aminomethyl)benzyl)S-ethylisothiourea], the Ki at inducible human NOS (setting [1]) was 0.15 µM; at human placental NOS (setting [2]), 2.1 µM; on Human brain NOS, 0.9 µM.
